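The concentration for 50% growth inhibition is given as GI50. The concentration for full growth arrest is given as TGI.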
Assays:
Test in all cases: DTP human tumour cell line panel, 384-well format
[1] = system: MDA-MB-468 breast
[2] = system: OVCAR-8 ovarian
[3] = system: OVCAR-4 ovarian
[4] = system: NCI-H23 lung
[5] = system: NCI/ADR-RES ovarian
[6] = system: HOP-92 NSCLC
[7] = system: NCI-H226 lung
[8] = system: SF-295 CNS
[9] = system: MALME-3M melanoma
[10] = system: SF-539 CNS
[11] = system: RPMI-8226 leukemia
[12] = system: A549 NSCLC
[13] = system: CCRF-CEM leukemia
[14] = system: 786-0 renal
[15] = system: IGROV1 ovarian
[16] = system: SW-620 colon
[17] = system: M14 melanoma
[18] = system: U251 glioblastoma
[19] = system: SNB-75 CNS
[20] = system: HCT-15 colon
[21] = system: HL-60(TB) leukemia
[22] = system: HCT-116 colon
[23] = system: BT-549 breast
[24] = system: OVCAR-5 ovarian
[25] = system: SK-MEL-2 melanoma
[26] = system: KM12 colon
[27] = system: T-47D breast
[28] = system: MCF7 breast
[29] = system: DU-145 prostate
[30] = system: RXF 393 renal
[31] = system: MOLT-4 leukemia
[32] = system: UO-31 renal
[33] = system: SF-268 CNS
[34] = system: OVCAR-3 ovarian
[35] = system: ACHN renal
[36] = system: HOP-62 NSCLC
[37] = system: NCI-H522 lung
[38] = system: CAKI-1 renal
[39] = system: SN12C renal
[40] = system: SK-MEL-28 melanoma
[41] = system: HT29 colon
[42] = system: SNB-19 CNS
[43] = system: SK-OV-3 ovarian
[44] = system: PC-3 prostate
[45] = system: K-562 leukemia
[46] = system: LOX IMVI melanoma
[47] = system: UACC-62 melanoma

## N[C@@H](Cc1ccc(N(CCCl)CCCl)cc1)C(=O)O
[1]
  GI50: 4.53 µM
  TGI: 18.7 µM
[2]
  GI50: 11.8 µM
[3]
  GI50: 40.7 µM
[4]
  GI50: 17.8 µM
  TGI: 60.5 µM
[5]
  GI50: 55.3 µM
[6]
  GI50: 28.2 µM
[7]
  GI50: 87.8 µM
[8]
  GI50: 19.2 µM
  TGI: 43.1 µM
[9]
  GI50: 14 µM
  TGI: 30.7 µM
[10]
  GI50: 15.4 µM
  TGI: 58.5 µM
[11]
  GI50: 7.95 µM
  TGI: 22.6 µM
[12]
  GI50: 26.9 µM
[13]
  GI50: 2.38 µM
  TGI: 4.41 µM
[14]
  GI50: 28.9 µM
[15]
  GI50: 85.1 µM
[16]
  GI50: 26.8 µM
[17]
  GI50: 20.8 µM
[18]
  GI50: 16.1 µM
[19]
  GI50: 20.9 µM
[20]
  GI50: 11.1 µM
[21]
  GI50: 1.34 µM
  TGI: 2.78 µM
[22]
  GI50: 23.8 µM
[23]
  GI50: 16.9 µM
  TGI: 82.1 µM
[24]
  GI50: 34.2 µM
[25]
  GI50: 63.1 µM
[26]
  GI50: 70.3 µM
[27]
  GI50: 41 µM
[28]
  GI50: 9.86 µM
[29]
  GI50: 28.5 µM
  TGI: 90 µM
[30]
  GI50: 17.3 µM
  TGI: 33.3 µM
[31]
  GI50: 1.01 µM
  TGI: 2.2 µM
[32]
  GI50: 52 µM
[33]
  GI50: 7.04 µM
  TGI: 44.9 µM
[34]
  GI50: 26 µM
[35]
  GI50: 19 µM
  TGI: 43.7 µM
[36]
  GI50: 11.7 µM
  TGI: 40.1 µM
[37]
  GI50: 14.4 µM
  TGI: 28.1 µM
[38]
  GI50: 13.2 µM
[39]
  GI50: 8.12 µM
[40]
  GI50: 89.7 µM
[41]
  GI50: 47 µM
[42]
  GI50: 48.1 µM
[43]
  GI50: 20.5 µM
  TGI: 96.2 µM
[44]
  GI50: 80.2 µM
[45]
  GI50: 27.8 µM
[46]
  GI50: 23.1 µM
[47]
  GI50: 15.2 µM

— PubChem BioAssay (NCI)
